This is an account of results in publication PMC5797931 (Frontiers in Pharmacology, 2018).

One data set can be described thus: in vivo. Also on record: species or system piglets (Landrace × large white). The settings on record: male, Landrace × large white (Seghers Hybrid), pig, 120 ug. The method, then: The current study was approved by the ethical committee of the Faculties of Veterinary Medicine and Bioscience Engineering of Ghent University (EC2014/184). Care and use of animals was in full compliance with the national (Belgian Royal Decree, [2013]) and European legislation (Anonymous, [2010]). […] Opti®, 6 months: […], Leuven, Belgium) and drinking water. Natural light was provided by translucent windows and the stable temperature was 23.2 ± 0.56°C. Higher temperatures were obtained in the rescue decks through heating lamps. In all age groups, a double lumen catheter was placed in the jugular vein according to Gasthuys et al. ([2017b]). After surgery, the piglets were housed individually to avoid displacement of the catheters. During single housing, a cotton towel was added to the decks and stables to mimic the smell of the other piglets. During the experiments, the stables were enriched with hanging chains, rubber toys and balls of different sizes. The environmental enrichment was rotated daily. […] Afterwards, the snout was closed during 30 s to ensure full dissolution of the lyophilisate. […] The CT-scans were processed using VGStudioMax (Volume Graphics GmbH, Heidelberg, Germany) and the body surface area (BSA) was determined after visualization and selection of the body surface in 3D (UGCT-Department of Physics and Astronomy, Ghent University, Ghent, Belgium). The GFR was determined as the clearance of the exogenous marker exo-iohexol (Gasthuys et al., [2017a]). […] Desmopressin plasma concentrations were determined at Aarhus University Hospital (Aarhus, Denmark) using a validated radioimmunoassay method as described by Emmeluth et al. […] Subsequently, based on a visual exploration of the plasma concentration-time profiles obtained in the growing piglets, a two-compartmental disposition model and a dual-input were evaluated to describe the absorption of the sublingual desmopressin lyophilisate. […]

For data set [1] the following is noted: human, in vivo; cited from earlier work.

Consider `NC(=O)CC[C@@H]1NC(=O)[C@H](Cc2ccccc2)NC(=O)[C@H](Cc2ccc(O)cc2)NC(=O)CCSSC[C@@H](C(=O)N2CCC[C@H]2C(=O)N[C@H](CCCN=C(N)N)C(=O)NCC(N)=O)NC(=O)[C@H](CC(N)=O)NC1=O` [desmopressin, 1-desamino-8-D-arginine vasopressin], for which, in the data set “in vivo”, the CL/F is 6580 mL/min and the Vd/F turned out to be 131 L. In the data set “in vivo” (po), this compound registered a maximum concentration (Cmax) of around 0.25 ng/mL. Moreover, in data set [1], the “F, absolute oral bioavailability” value is on record as below 1%.
